Reference: patent US20250255889A1, “METHODS FOR TREATMENT SELECTION FOR CHRONIC LYMPHOCYTIC LEUKEMIA (CLL)” (The Broad Institute, Inc., priority 2022, published 2025)

Tested on: primary CLL samples (CD19+ and CD5+ cells)
Test: High-throughput dynamic BH3 profiling (HT-DBP): drug-induced apoptotic priming (delta priming), cytochrome c release after BH3 peptide
Format: cell-based, human
Settings: for drug-induced apoptotic priming: across CLL subtypes, 65 primary CLL samples, 20 hours drug
Procedure: By “delta priming” is meant the difference in priming of a cell for apoptosis measured in the presence of an agent for treating chronic lymphocytic leukemia relative to priming of the cell in the presence of an inert carrier. In embodiments, the inert carrier is DMSO.
Dynamic BH3 Profiling Dynamic BH3 profiling (DBP) is a drug screening assay that measures the relative priming of cells in a biological sample for cell death by apoptosis in the presence of a specific compound and/or a pro-apoptotic peptide. By “Dynamic BH3 profiling” is meant measuring drug-induced changes in mitochondrial apoptotic priming. Mitochondrial apoptotic priming is a measure of how close to the apoptotic threshold a cell is. A highly primed cell has relatively less anti-apoptotic binding site availability and is closer to the apoptotic threshold than a poorly primed cell, which has more anti-apoptotic availability to buffer an apoptotic assault and is further from the apoptotic threshold. BH3 peptides derived from the BH3 domain of pro-apoptotic BH3-only proteins provoke a response from viable mitochondria. Cytochrome c released from the mitochondria after a short incubation with BH3 peptide is used as a surrogate for priming. In general, the more sensitive a mitochondrion is to a BH3 peptide, the more primed it is. A drug treatment that enhances priming will cause mitochondria to undergo MOMP more easily when incubated with a fixed concentration of a promiscuously binding BH3 peptide, such as BIM BH3 peptide, compared to control-treated cells. See, for example, Potter, D. S. & Letai, A. To prime, or not to prime: that is the question. Cold Spring Harb. Symp. Quant. Biol. 81, 131-140 (2016); Montero, J. et al. Drug-induced death signaling strategy rapidly predicts cancer response to chemotherapy. Cell 160, 977-989 (2015); Daniels, V. W. et al. Metabolic perturbations sensitize triple-negative breast cancers to apoptosis induced by BH3 mimetics. Sci.
Dynamic BH3 profiling and peptides for use therein are described, for example, in Certo, et al., “Mitochondria primed by death signals determine cellular addiction to antiapoptotic BCL-2 family members,” Cancer Cell, 9:351-365 (2006); and in Foight, et al. “Designed BH3 Peptides with High Affinity and Specificity for Targeting Mcl-1 in Cells,” ACS Chemical Biology, 9:1962-1968 (2014), the disclosures of which are incorporated herein by reference in their entireties for all purposes. The DBP assay enables one to compare the response of a patient tumor sample to a specific drug relative to other drugs and relative to an inert control (e.g., DMSO).
To address the challenge of selecting a proper treatment for a chronic lymphocytic leukemia, experiments were undertaken to optimize high-throughput dynamic BH3 profiling (HT-DBP) for evaluation of the drug sensitivities of CLL samples (FIGS. 1, 13, 5A, 5B, 6A, 6B, and 7A-7C).

[1] = peptide MS1 2.5 uM, feature loss_13q14.13
[2] = peptide BAD 0.3 uM, feature EC-i
[3] = peptide BAD 0.3 uM, feature IGLV321_R110
[4] = peptide BAD 0.3 uM, feature NOTCH1
[5] = peptide BAD 0.3 uM, feature RPS15
[6] = peptide BAD 0.3 uM, feature loss_6q
[7] = peptide BIM 0.01 uM, feature IGLV321_R110
[8] = peptide BIM 0.01 uM, feature RPS15
[9] = peptide BIM 0.01 uM, feature loss_6q
[10] = peptide MS1 2.5 uM, feature IGLV321_R110
[11] = peptide MS1 2.5 uM, feature NOTCH1
[12] = peptide MS1 2.5 uM, feature RPS15
[13] = peptide MS1 2.5 uM, feature loss_6q
[14] = peptide PUMA 1 uM, feature EC-i
[15] = peptide PUMA 1 uM, feature IGLV321_R110
[16] = peptide PUMA 1 uM, feature NOTCH1
[17] = peptide PUMA 1 uM, feature RPS15
[18] = peptide PUMA 1 uM, feature loss_6q
[19] = peptide BIM 0.01 uM, feature NOTCH1
[20] = peptide MS1 2.5 uM, feature tri_12
[21] = peptide PUMA 1 uM, feature loss_17q23.1
[22] = peptide BAD 0.3 uM, feature loss_17p13.1
[23] = peptide BAD 0.3 uM, feature loss_17q23.1

CCS(=O)(=O)N1CCN(c2ccc(Nc3ncc(C(N)=O)c(NC4CC4)n3)cc2)CC1 [Cerdulatinib]
direction (Feature loss_13q14.13): Sensitive
direction (Feature loss_13q14.3): Sensitive
drug-induced apoptotic priming: high priming
direction (peptide BAD 0.3 uM, feature loss_13q14.13): Sensitive
direction (peptide BAD 0.3 uM, feature loss_13q14.3): Sensitive
direction (peptide BIM 0.01 uM, feature KMT2D): Sensitive
direction (peptide BIM 0.01 uM, feature loss_13q14.13): Sensitive
direction (peptide BIM 0.01 uM, feature loss_13q14.3): Sensitive
direction [1]: Sensitive
direction (peptide PUMA 1 uM, feature loss_13q14.13): Sensitive
direction (peptide PUMA 1 uM, feature loss_13q14.3): Sensitive

C[C@@H](Oc1cc(-c2cnn(C3CCNCC3)c2)cnc1N)c1c(Cl)ccc(F)c1Cl [Crizotinib]
direction [2]: Resistant
direction (peptide BAD 0.3 uM, feature EC-u1): Sensitive
direction [3]: Resistant
direction [4]: Resistant
direction (peptide BAD 0.3 uM, feature RFX7): Sensitive
direction [5]: Resistant
direction (peptide BAD 0.3 uM, feature ZMYM3): Sensitive
direction [6]: Resistant
direction (peptide BAD 0.3 uM, feature loss_11q22.3): Sensitive
direction (peptide BAD 0.3 uM, feature n-CLL): Sensitive
direction (peptide BIM 0.01 uM, feature EC-i): Resistant
direction [7]: Resistant
direction (peptide BIM 0.01 uM, feature NOTCHI): Resistant
direction [8]: Resistant
direction (peptide BIM 0.01 uM, feature SF3B1): Sensitive
direction [9]: Resistant
direction [10]: Resistant
direction [11]: Resistant
direction (peptide MS1 2.5 uM, feature RFX7): Resistant
direction [12]: Resistant
direction (peptide MS1 2.5 uM, feature ZMYM3): Resistant
direction [13]: Resistant
direction (peptide MS1 2.5 uM, feature priortrt_Post): Resistant
direction [14]: Resistant
direction [15]: Resistant
direction [16]: Resistant
direction [17]: Resistant
direction [18]: Resistant

Cc1nc(Nc2ncc(C(=O)Nc3c(C)cccc3Cl)s2)cc(N2CCN(CCO)CC2)n1 [Dasatinib, dasatinib]
direction [3]: Resistant
direction [4]: Resistant
direction [5]: Resistant
direction [6]: Resistant
direction [7]: Resistant
direction [19]: Resistant
direction [8]: Resistant
direction [9]: Resistant
direction (peptide BIM 0.01 uM, feature loss_17q23.1): Sensitive
direction (peptide MS1 2.5 uM, feature EC-i): Resistant
direction [10]: Resistant
direction [11]: Resistant
direction [12]: Resistant
direction [13]: Resistant
direction [20]: Sensitive
direction [15]: Resistant
direction [16]: Resistant
direction [17]: Resistant
direction [18]: Resistant
direction [21]: Sensitive

C[C@H](Nc1ncnc2[nH]cnc12)c1cc2cccc(Cl)c2c(=O)n1-c1ccccc1 [Duvelisib, duvelisib]
drug-induced apoptotic priming: high priming
direction [22]: Sensitive
direction [23]: Sensitive
direction (peptide BIM 0.01 uM, feature EC-m2): Sensitive
direction [19]: Resistant
direction (peptide MS1 2.5 uM, feature loss_17p13.1): Sensitive
direction (peptide MS1 2.5 uM, feature loss_17q23.1): Sensitive
direction (peptide PUMA 1 uM, feature EC-m2): Sensitive
direction (peptide PUMA 1 uM, feature loss_17p13.1): Sensitive
direction [21]: Sensitive

c1cn2cc(-c3ccc4cn[nH]c4c3)nc(Nc3ccc(N4CCOCC4)cc3)c2n1 [Entospletinib]
direction (Feature tri_12): Sensitive
direction [22]: Sensitive
direction [23]: Sensitive
direction (peptide BAD 0.3 uM, feature loss_19p13.11): Sensitive
direction (peptide BIM 0.01 uM, feature tri_12): Sensitive
direction (peptide MS1 2.5 uM, feature loss_19p13.11): Sensitive
direction (peptide PUMA 1 uM, feature loss_19p13.11): Sensitive

CCn1c(-c2nonc2N)nc2c(C#CC(C)(C)O)ncc(OC[C@H]3CCCNC3)c21 [GSK690693]
direction (Feature i-CLL): Sensitive
direction (peptide BAD 0.3 uM, feature EC-o): Sensitive
direction (peptide BAD 0.3 uM, feature POT1): Resistant
direction (peptide BAD 0.3 uM, feature loss_3p13): Resistant
direction (peptide BIM 0.01 uM, feature i-CLL): Sensitive
direction (peptide MS1 2.5 uM, feature EC-m3): Resistant
direction (peptide MS1 2.5 uM, feature EC-o): Sensitive
direction (peptide MS1 2.5 uM, feature i-CLL): Sensitive
direction [1]: Sensitive
direction (peptide PUMA 1 uM, feature BIRC3): Sensitive
direction (peptide PUMA 1 uM, feature ITIH2): Sensitive
direction (peptide PUMA 1 uM, feature i-CLL): Sensitive
direction (peptide PUMA 1 uM, feature loss_9p21.3): Sensitive
direction (peptide PUMA 1 uM, feature loss_17q11.2): Sensitive

Cc1cc(Nc2cc(CN3CCOCC3)c3nc(C)c(Cc4ccc(Cl)cc4F)n3n2)n[nH]1 [Gandotinib]
drug-induced apoptotic priming by expression cluster (EC-ul (U-CLL)): most sensitive
direction (Feature EC-i): Resistant
drug-induced apoptotic priming: high priming
direction [2]: Resistant
direction (peptide BAD 0.3 uM, feature GNB1): Sensitive
direction [14]: Resistant
direction (peptide PUMA 1 uM, feature GNB1): Sensitive

CC[C@H](Nc1ncnc2nc[nH]c12)c1nc2cccc(F)c2c(=O)n1-c1ccccc1 [Idelalisib, idelalisib]
drug-induced apoptotic priming: high priming
direction [20]: Sensitive
direction (peptide PUMA 1 uM, feature DICER1): Resistant
direction (peptide PUMA 1 uM, feature EC-m4): Sensitive
direction (peptide PUMA 1 uM, feature KMT2D): Sensitive
direction (peptide PUMA 1 uM, feature MED1): Resistant
